Laboratory results from patent publication US4264590A, “Antibacterial peptide” (Abbott Laboratories, priority 1980, dated 1981).
Several values for one entry are separate records, joined by “and”; a condition that tells them apart may be missing. Equal entries are not always repeated.

How the values were obtained:
E. coli (Juhl) [1] = test: mouse protection test, CD50 (Table III); assay type: in vivo
Procedure: (§1) Charles River mice, weighing approximately 20 g. each, are infected intraperitoneally with 10-100 times the LD of the infecting organism. At predetermined intervals post-infection, e.g., 1 and 5 hours, mice are dosed subcutaneously with graded doses of the halogenated peptide, antibiotic and combination thereof. The number of mice surviving each treatment for 7 days post-infection is observed and the CD50 is calculated. The fractional inhibitory concentration (F.I.C.) for each combination is calculated in the usual manner.
(§2) In this table, the following infecting microorganisms were used:
(§3) The infecting organisms are listed by the above code; the compounds are listed by their Example number. In all instances, the dipeptide and D-cycloserine were tested at a ratio of 10:1. The CD50 combination column lists only the amount of peptide present; the D-cycloserine amount is 10% of the listed amount.

S. aureus (Smith) = test: mouse protection test, CD50 (Table III); assay type: in vivo; conditions: for F.I.C. Index / CD50 (mg/kg) Combination: S. aureus (Smith) in mice, dipeptide:D-cycloserine 10:1; for CD50 (mg/kg) Combination: amount of peptide only listed, D-cycloserine is 10% of it; for CD50 (mg/kg) Peptide: mice infected i.p. with S. aureus (Smith), dosed subcutaneously, 7 days survival, peptide alone
Procedure: as §1, §2, §3

E. coli (Juhl) [2] = test: serial dilution in synthetic medium in test tubes, MIC and F.I.C. index (Table II); assay type: cell-based; conditions: for MIC ppm Peptide: peptide alone, E. coli (Juhl), 35-37° C., 16-20 hours
Procedure: The halogenated peptides alone, the antibiotic alone or mixtures of the halogenated peptides and selected antibiotics are prepared in sterile concentrated aqueous solutions at the desired ratios. Serial dilutions are made to give a range of concentrations of the test substances. Samples of the dilutions are mixed with an appropriate sterile synthetic medium in test tubes. The tubes are then inoculated with an appropriate test organism and incubated at 35°-37° C. for 16-20 hours. Minimum inhibitory concentrations, i.e., that concentration which inhibits visible growth, are read and the fractional inhibitory concentration indices (F.I.C.) are calculated. In all instances, E. coli (Juhl) was used as the infecting microorganism.

[3] = combination with D-cycloserine, ratio Pep/Antib. 1:1
[4] = combination with D-cycloserine, ratio Pep/Antib. 1:8
[5] = combination with carbencillin, ratio Pep/Antib. 1:1
[6] = combination with carbencillin, ratio Pep/Antib. 1:8
[7] = combination with D-cycloserine, ratio Pep/Antib. 8:1

| SMILES | F.I.C. Index (S. aureus (Smith)) | CD50 (mg/kg) Combination (S. aureus (Smith)) | CD50 (mg/kg) Peptide (S. aureus (Smith)) | F.I.C. Index (E. coli (Juhl) [2]; [3]) | MIC ppm Pep/Antib., antibiotic part (E. coli (Juhl) [2]; [3]) | MIC ppm Pep/Antib., peptide part (E. coli (Juhl) [2]; [3]) | F.I.C. Index (E. coli (Juhl) [2]; [4]) | MIC ppm Pep/Antib., antibiotic part (E. coli (Juhl) [2]; [4]) | MIC ppm Pep/Antib., peptide part (E. coli (Juhl) [2]; [4]) | MIC ppm Peptide (E. coli (Juhl) [2]) | other results |
| --- | --- | --- | --- | --- | --- | --- | --- | --- | --- | --- | --- |
| CC(C)C[C@H](N)C(=O)N[C@H](CF)C(=O)O [Example 4, L-Leu-βF-D-Ala] | 0.25 | 1.6 mg/kg | 7.4 mg/kg | 0.008 | 0.1 ppm | 0.1 ppm | 0.06 | 0.78 ppm | 0.1 ppm | > 200 ppm and > 100 ppm | F.I.C. Index (E. coli (Juhl) [1]; E. coli (Juhl) in mice, dipeptide:D-cycloserine 10:1): 0.41; CD50 (mg/kg) Combination (E. coli (Juhl) [1]; E. coli (Juhl) in mice, dipeptide:D-cycloserine 10:1, amount of peptide only listed, D-cycloserine is 10% of it): 10.1 mg/kg; CD50 (mg/kg) Peptide (E. coli (Juhl) [1]; mice infected i.p. with E. coli (Juhl), dosed subcutaneously, 7 days survival, peptide alone): 25.9 mg/kg; F.I.C. Index (E. coli (Juhl) [2]; [5]): 0.25; MIC ppm Pep/Antib., antibiotic part (E. coli (Juhl) [2]; [5]): 1.56 ppm; MIC ppm Pep/Antib., peptide part (E. coli (Juhl) [2]; [5]): 1.56 ppm; F.I.C. Index (E. coli (Juhl) [2]; [6]): 2.0; MIC ppm Pep/Antib., antibiotic part (E. coli (Juhl) [2]; [6]): 12.5 ppm; MIC ppm Pep/Antib., peptide part (E. coli (Juhl) [2]; [6]): 1.56 ppm |
| N[C@@H](Cc1ccccc1)C(=O)N[C@H](CF)C(=O)O [Example 5, L-Phe-βF-D-Ala] | 0.99 | 13.6 mg/kg | 14.4 mg/kg | – | – | – | – | – | – | – | – |
| NCCCC[C@H](N)C(=O)N[C@H](CF)C(=O)O [Example 6, L-Lys-βF-D-Ala] | 0.08 and 0.13 | 6.8 mg/kg and 4.0 mg/kg | – | – | – | – | – | – | – | – | – |
| O=C(N[C@H](CF)C(=O)O)[C@@H]1CCCN1 [Example 7, L-Pro-βF-D-Ala] | 0.35 | 3.7 mg/kg | 12.2 mg/kg | – | – | – | – | – | – | – | – |
| N[C@@H](CO)C(=O)N[C@H](CF)C(=O)O [Example 8, L-Ser-βF-D-Ala] | 0.13 | 5.2 mg/kg | 48 mg/kg | 0.008 | 0.1 ppm | 0.1 ppm | 0.03 | 0.39 ppm | 0.05 ppm | > 800 ppm | F.I.C. Index (E. coli (Juhl) [2]; [7]): 0.004; MIC ppm Pep/Antib., antibiotic part (E. coli (Juhl) [2]; [7]): 0.05 ppm; MIC ppm Pep/Antib., peptide part (E. coli (Juhl) [2]; [7]): 0.39 ppm |
